In patent publication US20230174584A1, “Antibiotic Compounds” (priority 2019, published 2023):
Values after ≈ are worked out from the molar mass of the structure shown.

Columns and labels:
S. aureus ATCC29213 = assay: MIC assay; type: cell-based, Staphylococcus aureus; settings: S. aureus ATCC29213 MSSA
Method in brief: (§1)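 Twofold serial dilutions, biological triplicates, combined with an equal volume of bacterial suspension (10^6 CFU/mL) in TSB/0.002% polysorbate 80. Incubation lasted 24 h at 37 °C, shaking at 600 rpm. Median of replicates gives MIC.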

[1] = test system: S. aureus 880 (BR-VRSA), NR-49120; assay: MIC assay; type: cell-based, Staphylococcus aureus; settings: S. aureus 880, NR-49120 VRSA
Method in brief: as §1

[2] = test system: S. aureus LIM-2, NR-25881; assay: MIC assay; type: cell-based, Staphylococcus aureus; settings: S. aureus LIM-2, NR-25881 VISA
Method in brief: as §1

[3] = test system: S. aureus NY-155, NR-46236; assay: MIC assay; type: cell-based, Staphylococcus aureus; settings: S. aureus NY-155, NR-46236 MRSA
Method in brief: as §1

[4] = test system: S. aureus HIP12864, NR-46074; assay: MIC assay; type: cell-based, Staphylococcus aureus; settings: S. aureus HIP12864, NR-46074 VISA
Method in brief: as §1

MRSA USA300 = assay: MIC assay in the presence of sheep serum; type: cell-based, Staphylococcus aureus; settings: MRSA USA300, TSB + 0.002% p80 + 50% sheep serum
Method in brief: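 Broth microdilution MIC per CLSI against MRSA USA300, 2-fold compound dilutions, 10^6 CFU/mL inoculum (pre-mixing), polypropylene plates, 37 °C for 24 h with shaking. Medium was TSB + 0.002% polysorbate 80 + 50% sheep serum; MIC as median of at least triplicates, in μg/mL.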

E. faecium E0341 = assay: MIC assay; type: cell-based, Enterococcus faecium; settings: E. faecium E0341, VanA
S. aureus ATCC29123 = assay: Lipid II antagonization assay; type: cell-based, Staphylococcus aureus; settings: for visible bacterial growth with lipid II / visible bacterial growth without lipid II: 8×MIC of test compound, 24 h; for visible bacterial growth with lipid II: 5-fold molar excess of lipid II; for bacterial growth after co-incubation with lipid II: 8×MIC; for visible bacterial growth with lipid II: key: − means no visible growth; + means visible growth; for visible bacterial growth without lipid II: key: − means no visible growth; + means visible growth
Protocol: Lipid II in chloroform was added in the appropriate amount (5-fold molar excess compared to test antibiotics) to a 96-well plate and the chloroform was allowed to evaporate. […] Of these dilutions, 50 μL was mixed with the 5-fold molar excess of pure lipid II in triplicates in the plate as well as added to the plate in triplicates without lipid II present. S. aureus ATCC29123 colonies were suspended in TSB with 0.002% p80 by direct colony suspension to an optical density that reached a level equivalent to the 0.5 McFarlan standard. […] The samples were incubated at 37° C. for 24 h with constant shaking (600 rpm) and inspected for visible bacterial growth. Positive growth control consisted of wells with bacterial suspension and without antibiotic or lipid II. Negative growth control consisted of solely media without bacterial suspension, antibiotic or lipid II.
In the antagonization assay, lipid II is co-incubated with the test antibiotics in the presence of bacterial culture. When lipid II binds the glycopeptides, the binding of these antibiotics to their target in the growing bacterial culture is antagonized. This ultimately results in diminished activity of the antibiotics and bacterial growth which normally would not be visible (at 8×MIC) becomes visible. Therefore, this assay could be used to determine if part of the mechanism of action of our compounds involves binding to lipid II.

E. faecium E7314 = assay: microbe, parasite or virus in culture; type: cell-based, Enterococcus faecium
Method in brief: as §1

E. faecium E155 = assay: microbe, parasite or virus in culture; type: cell-based, Enterococcus faecium
Method in brief: as §1

[5] = E. faecium E7314, VanB (Table 10)
[6] = E. faecium E155, VanA (Table 10)

Compound	MIC (S. aureus ATCC29213)	MIC [1]	MIC [2]	MIC [3]	MIC [4]	MIC (MRSA USA300)	MIC (E. faecium E0341)	visible bacterial growth with lipid II (S. aureus ATCC29123)	visible bacterial growth without lipid II (S. aureus ATCC29123)	bacterial growth after co-incubation with lipid II (S. aureus ATCC29123)	MIC (E. faecium E7314; [5])	MIC (E. faecium E7314; E. faecium E7314 VRE (VanB))	MIC (E. faecium E155; [6])	MIC (E. faecium E155; E. faecium E155 VRE (VanA))
CCCCCCCCCNC(N)=Nc1ccc(CN[C@@]2(C)C[C@H](O[C@H]3[C@H](Oc4c5cc6cc4Oc4ccc(cc4Cl)[C@@H](O)[C@@H](NC(=O)[C@@H](CC(C)C)NC)C(=O)N[C@@H](CC(N)=O)C(=O)N[C@H]6C(=O)N[C@H]4C(=O)N[C@H](C(=O)N[C@H](C(=O)O)c6cc(O)cc(O)c6-c6cc4ccc6O)[C@H](O)c4ccc(c(Cl)c4)O5)O[C@H](CO)[C@@H](O)[C@@H]3O)O[C@@H](C)[C@H]2O)cc1 [Compound 7]	0.01562 µg/mL (≈ 9.07 nM)	0.5 µg/mL (≈ 290 nM)	≤8 ng/mL	≤8 ng/mL	≤0.008 µg/mL	0.063 µg/mL	1 µg/mL (≈ 580 nM)	+	−	Bacterial growth was visible	≤8 ng/mL	≤7.812 ng/mL	0.5 µg/mL (≈ 290 nM)	0.5 µg/mL (≈ 290 nM)
CN[C@H](CC(C)C)C(=O)N[C@H]1C(=O)N[C@@H](CC(N)=O)C(=O)N[C@H]2C(=O)N[C@H]3C(=O)N[C@H](C(=O)N[C@H](C(=O)O)c4cc(O)cc(O)c4-c4cc3ccc4O)[C@H](O)c3ccc(c(Cl)c3)Oc3cc2cc(c3O[C@@H]2O[C@H](CO)[C@@H](O)[C@H](O)[C@H]2O[C@H]2C[C@](C)(NCc3ccc(N=C(N)NC/C=C(\C)CCC=C(C)C)cc3)[C@H](O)[C@H](C)O2)Oc2ccc(cc2Cl)[C@H]1O [Compound 14]	≤0.007812 µg/mL	1 µg/mL (≈ 577 nM)	≤8 ng/mL	≤8 ng/mL	0.031 µg/mL (≈ 17.9 nM)	0.063 µg/mL	4 µg/mL (≈ 2310 nM)	+	−	Bacterial growth was visible	≤8 ng/mL	≤7.812 ng/mL	1 µg/mL (≈ 577 nM)	1 µg/mL (≈ 577 nM)
